Laboratory results published in patent US4761398A, “Method of inducing birds to molt” (Embrex, Inc., priority 1986, dated 1988).

Tests used:
[1] = test system: single combed White Leghorn hens; assay: Egg parameters (specific gravity, total egg weight, shell weight); assay type: in vivo
Procedure: During the experiment, two birds were assigned to each cage (12"×18"). The hens were maintained in their cages for two weeks prior to the molt. They received a 17 hour light: 7 hour dark photoperiod throughout this phase of the experiment. During this time, the following parameters were measured:(a) body weight (weekly); (b) feed consumption (all hens received a common layer ration, and the feed consumed during this two week period was measured); (C) production records (daily); and (d), total egg weight, egg shell weight, and egg specific gravity (measured on three consecutive days each week). Serum samples were taken once, from 10 randomly selected hens from each treatment group, and saved for future study.
After the two week pre-molt adjustment period, the hens were randomly assigned to each of eight different groups. These treatment groups were as follows: (1) control, (2) forced molt, (3) chemical molt-injected, (4) vehicle control-injected, (5) chemical molt-microcapsules A, (6) vehicle control-microcapsules A, (7) chemical molt-microcapsules B, and (8) vehicle control-microcapsules B.
[D-Trp^6 ]LHRH was used as the LHRH receptor ligand for the chemical molt groups. The "chemical molt-injected" group received intramuscular (breast) injections of 25 micrograms/day of [D-Trp^6 ]LHRH for 10 consecutive days beginning on day 14. Alternate pectoral (breast) areas were injected each day. The "chemical molt-microcapsule" groups received a single intramuscular (breast) injection of microencapsulated [D-Trp^6 ]LHRH on day zero. This preparation of microcapsules provided a controlled release of 25 micrograms [D-Trp^6 ]LHRH per day for 15 consecutive days.
On day 14, the microcapsule injected groups received intramuscular injections of lactide/glycolide copolymer microcapsules which had [D-Trp^6 ]LHRH incorporated therein. The ligand-containing microcapsules administered the "Microcapsules A" group were prepared and supplied by Debiopharm (Lausanne, Switzerland). These microcapsules were prepared by a phase-separation process to produce a free-flowing powder of spherical particles consisting of [D-Trp^6 ]LHRH (2% wt/wt) distributed within a polymeric matrix of 53:47(mol %) poly(DL-lactide-co-glycolide) (98% wt/wt) with an inherent viscosity of 0.7 dl/g. The microcapsules were 50 micrometers or less in diameter. […] Photomicrographs of similar microcapsules are presented in T. W. Redding, et al., Proc. Natl. Acad. Sci. U.S.A., 81, 5845 (Sept. 1984).
The remaining hens were maintained for a three month production period, during which the following parameters were measured: a. body weight (weekly for the first month and then twice a month); b. feed consumption (measured weekly); c. egg production (measured daily); and d. egg weight, shell weight and specific gravity (measured for three consecutive days each week for the first month, and then three consecutive days every two weeks).

[2] = Body weight of hens through the molt and production period; assay type: in vivo, single combed White Leghorn hens
Procedure: During the experiment, two birds were assigned to each cage (12"×18"). The hens were maintained in their cages for two weeks prior to the molt. They received a 17 hour light: 7 hour dark photoperiod throughout this phase of the experiment. During this time, the following parameters were measured:(a) body weight (weekly); (b) feed consumption (all hens received a common layer ration, and the feed consumed during this two week period was measured); (C) production records (daily); and (d), total egg weight, egg shell weight, and egg specific gravity (measured on three consecutive days each week). Serum samples were taken once, from 10 randomly selected hens from each treatment group, and saved for future study. After the two week pre-molt adjustment period, the hens were randomly assigned to each of eight different groups. These treatment groups were as follows: (1) control, (2) forced molt, (3) chemical molt-injected, (4) vehicle control-injected, (5) chemical molt-microcapsules A, (6) vehicle control-microcapsules A, (7) chemical molt-microcapsules B, and (8) vehicle control-microcapsules B. The hens then received a seven day pre-molt treatment of a 24 hour light, zero hour dark photoperiod. On day 14 of the experiment the photoperiod was then reduced to natural day length for all treatments. Feed was made available ad libitum for all groups except the forced molt group. The forced molt group was deprived of food, but not of water, until a 30% body weight loss occurred (10 days of fasting). [D-[…] ]LHRH was used as the LHRH receptor ligand for the chemical molt groups. The "chemical molt-injected" group received intramuscular (breast) injections of 25 micrograms/day of [D-[…] ]LHRH for 10 consecutive days beginning on day 14. Alternate pectoral (breast) areas were injected each day. The "chemical molt-microcapsule" groups received a single intramuscular (breast) injection of microencapsulated [D-[…] ]LHRH on day zero. This preparation of microcapsules provided a controlled release of 25 micrograms [D-[…] ]LHRH per day for 15 consecutive days. For all treatments, body weights were measured at day zero and every three days thereafter, until the forced molt group achieved a 30% weight loss. Serum samples were periodically collected from 10 hens randomly selected from each group, and saved for future analysis. The same 10 hens from each group were bled at each collection. On day 14, the microcapsule injected groups received intramuscular injections of lactide/glycolide copolymer microcapsules which had [D-[…] ]LHRH incorporated therein. The ligand-containing microcapsules administered the "Microcapsules A" group were prepared and supplied by Debiopharm (Lausanne, Switzerland). These microcapsules were prepared by a phase-separation process to produce a free-flowing powder of spherical particles consisting of [D-[…] ]LHRH (2% wt/wt) distributed within a polymeric matrix of 53:47(mol %) poly(DL-lactide-co-glycolide) (98% wt/wt) with an inherent viscosity of 0.7 dl/g. The microcapsules were 50 micrometers or less in diameter. […] Photomicrographs of similar microcapsules are presented in T. W. Redding, et al., Proc. Natl. Acad. Sci. […]. 1984). Microcapsules were suspended in disposable syringes in vehicle containing 2% carboxymethyl cellulose and 1% "TWEEN 20" in water. After thoroughly mixing the suspension, aliquots calculated to have released a dose of 25 micrograms/day for 15 consecutive days were injected into the breast muscle of the hens. We weighed the microcapsules directly into disposable 3 ml syringes. The plunger of a plugged syringe containing microcapsules (without vehicle) was pulled back to the 1.5-2 cc mark. The hub of the syringe was then placed against a vortex mixer and the syringe vortexed rapidly for about 20 seconds, or until most of the clumps of microbeads were broken and distributed along the barrel of the syringe. […]

[3] = Week 1 = days zero-2, before treatment
[4] = Week 2 = days 6-8, before treatment

[D-Trp^6 ]LHRH [D-Trp^6 --LHRH]
EGG SHELL WEIGHT [1, 3]: 5.46 g | EGG SPECIFIC GRAVITY [1, 3]: 1.079 (g/cm)^3 | TOTAL EGG WEIGHT [1, 3]: 66.04 g | EGG SHELL WEIGHT [1, 4]: 5.82 g | EGG SPECIFIC GRAVITY [1, 4]: 1.082 (g/cm)^3 | TOTAL EGG WEIGHT [1, 4]: 67.72 g | EGG SHELL WEIGHT ([1]; Week 3 = days 40-42): 5.15 g | EGG SPECIFIC GRAVITY ([1]; Week 3 = days 40-42): 1.075 (g/cm)^3 | TOTAL EGG WEIGHT ([1]; Week 3 = days 40-42): 64.38 g | EGG SHELL WEIGHT ([1]; Week 4 = days 47-49): 5.61 g | EGG SPECIFIC GRAVITY ([1]; Week 4 = days 47-49): 1.079 (g/cm)^3 | TOTAL EGG WEIGHT ([1]; Week 4 = days 47-49): 68.27 g | EGG SHELL WEIGHT ([1]; Week 5 = days 54-56): 5.79 g | EGG SPECIFIC GRAVITY ([1]; Week 5 = days 54-56): 1.079 (g/cm)^3 | TOTAL EGG WEIGHT ([1]; Week 5 = days 54-56): 68.81 g | EGG SHELL WEIGHT ([1]; Week 6 = days 61-63): 5.65 g | EGG SPECIFIC GRAVITY ([1]; Week 6 = days 61-63): 1.080 (g/cm)^3 | TOTAL EGG WEIGHT ([1]; Week 6 = days 61-63): 67.4 g | EGG SHELL WEIGHT ([1]; Week 7 = days 75-77): 5.59 g | EGG SPECIFIC GRAVITY ([1]; Week 7 = days 75-77): 1.079 (g/cm)^3 | TOTAL EGG WEIGHT ([1]; Week 7 = days 75-77): 67.19 g | quality of eggs produced after the molt ([1]; compared with conventional Forced Molted Group): as good in quality as the eggs produced by the conventional Forced Molted Group | MEAN BODY WEIGHT ([2]; Day 5, before treatment): 1.669 kg | MEAN BODY WEIGHT ([2]; Day 12, before treatment (treatment started day 13/14)): 1.722 kg | MEAN BODY WEIGHT ([2]; Day 17, 25 micrograms/day i.m.): 1.765 kg | MEAN BODY WEIGHT ([2]; Day 22, 25 micrograms/day i.m.): 1.704 kg | MEAN BODY WEIGHT ([2]; Day 27): 1.637 kg | MEAN BODY WEIGHT ([2]; Day 33): 1.654 kg | MEAN BODY WEIGHT ([2]; Day 40): 1.747 kg | MEAN BODY WEIGHT ([2]; Day 47): 1.760 kg | MEAN BODY WEIGHT ([2]; Day 54): 1.761 kg | MEAN BODY WEIGHT ([2]; Day 61): 1.802 kg | MEAN BODY WEIGHT ([2]; Day 75): 1.838 kg | MEAN BODY WEIGHT ([2]; Day Zero, before treatment): 1.720 kg
